The text below walks through data of PMC4550876, “Discovery of γ-Mangostin as an Amyloidogenesis Inhibitor” (Scientific Reports, 2015).

One assay has as its target T1, V30M mutated TTR (Homo sapiens, UniProt P02766, V50M).
T1 construct: made in house
The assay can be described thus: Acid-mediated aggregation experiment (thioflavin T assay) of amyloid fibril formation. The format is biochemical. The conditions noted are these: 10 μM V30M; for EC50 / Inhibition ratio at 20 μM / inhibition at 20 µM: pH 4.5, 310 K, 96 h; for EC50: 0–20 μM compound, thioflavin T fluorescence; for Inhibition ratio at 20 μM / inhibition at 20 µM: 20 μM compound; for inhibition at 20 µM: read-out: Inhibition ratio at 20 μM. An excerpt:
V30M mutated TTR (V30M), which is most commonly associated with FAP, was used in this study, along with the following commercially available compounds (Fig. 1 and Table 1): α-mangostin (α-M, 1), 3-isomangostin (2) 9-hydroxycalabaxanthone (3), γ-mangostin (γ-M, 4), gartanin (5), 8-deoxygartanin (6), garcinone C (7), norathyriol (8), 1,3,7-trihydroxy-2-prenylxanthone (9), 3,4,5,6-tetrahydroxyxanthone (10), 1,6,7-trihydroxyxanthone (11) and mangiferin (12). Amyloid fibril formation of V30M was induced by acidic pH and the amount of fibril was quantified using thioflavin T in the presence of 0–20 μM of the compounds. The EC50 values were calculated as previously described.
Thioflavin T assay was performed using V30M in [20 mM Tris-HCl pH 8.0 and 150 mM NaCl] and 10 mM stock solutions (ethanol) of xanthone derivatives. Prior to acid-mediated aggregation, 50 μL of V30M (100 μM) was incubated for 30 min in the presence of xanthone derivatives at room temperature. After the incubation, the pH was decreased to 4.5 by adding 450 μL of 50 mM sodium acetate pH 4.5. The sample was gently vortexed and incubated at 310 K for 96 h. At this time, the concentrations of V30M and the xanthone derivatives were 10 μM and 2.5-20 μM, respectively. The solution was 5.5-fold diluted with 200 mM Tris-HCl buffer (pH 8.0). Thioflavin T assays were performed via the addition of 10 mM thioflavin T to 1.8 μM TTR samples. The final concentration of thioflavin T was 20 μM. Fluorescence emission spectra were obtained with excitation and emission wavelengths of 440 and 484 nm, respectively. The fluorescence of the sample without incubation at pH 4.5 was used as a 100% control, and that of the sample in the absence of xanthone derivatives with incubation at pH 4.5 was used as a 0% control. The amyloid fibril inhibitory ratio (%) = 100 × [1 - (fluorescence at each concentration of xanthone derivatives - 100% control)/(0% control - 100% control)]. Amyloid fibril inhibitory curves were fitted using the 4-parameter logistic model by the least squares methods and at least 3 ligand concentrations were used[30]. EC50 was estimated according to this model.

Another assay addresses T2, V30M tetramer (Homo sapiens, UniProt P02766, V50M).
T2 construct: made in house
The assay can be described thus: Glutaraldehyde cross-linking assay of quaternary structural stability at acidic pH. The format is biochemical. The conditions noted are these: pH 4.5, 310 K, 10 days, 3.6 μM V30M, compound 5 and 50 μM, SDS-PAGE. Here is the method: The effect of the selected compounds on the quaternary structural stability of V30M at acidic pH was assessed using glutaraldehyde cross-linking followed by SDS-PAGE as previously described.
Glutaraldehyde cross-linking experiments were performed as previously described with some minor modifications. The stock solutions of the selected compounds were prepared in ethanol. Prior to the acid-mediated tetramer dissociation, V30M in solution [20 mM Tris-Cl pH 8.0 and 150 mM NaCl] was incubated with the compounds at room temperature for 30 min. After the incubation period, a 2-fold volume of 0.1 M sodium acetate pH 4.5 was added, and then the sample was incubated at 310 K for 10 days. At this stage, the protein concentration was 3.6 μM, and the compound concentrations were 5 and 50 μM. After the incubation period, 50 μL aliquots of the incubated samples were mixed with 2.5 μL of 25% glutaraldehyde and incubated at room temperature for 4 min, and the reactions were terminated by the addition of 5 μL of sodium borohydrate (7% (w/v) in 0.1 N NaOH). The aliquots were then mixed with SDS sample buffer, boiled and resolved by SDS-PAGE. The protein bands were visualized by silver staining.

The next assay has as its target T3, T4-binding sites of V30M (Homo sapiens, UniProt P02766, V50M).
T3 construct: made in house
Nature of the assay: Resveratrol competitive binding assay. To be noted: 2 μM TTR, 5 μM resveratrol, excitation 320 nm. The protocol: (§1) V30M was titrated with various concentrations of γ-M. A previous study has shown that the binding to TTR induces quenching of the intrinsic fluorescence emission from TTR at 336 nm[22]. […] In addition, we performed a competitive binding assay using trans-resveratrol, which is known to bind to the T4-binding sites of TTR. […] For additional evidence, a pull-down assay was carried out using Sepharose 4B beads coupled with γ-M. V30M was detected in the Sepharose 4B-γ-M-coupled beads but not in Sepharose 4B beads alone or in Sepharose 4B beads alone with free γ-M (Fig. 2c).
(§2) The binding of γ-M to TTR was confirmed by an intrinsic emission fluorescence spectrum assay and a resveratrol competitive binding assay. For the intrinsic fluorescence, the spectra (300–400 nm) of 2 μM TTR in [50 mM Tris-HCl pH 7.5 and 150 mM NaCl] were recorded by exciting the protein at 280 nm[22]. […] The spectra were recorded at 0, 0.5, 2, 5 and 20 μM of γ-M. For the resveratrol competitive binding assay, the spectra (350–500 nm) of 2 μM TTR in [50 mM Tris-HCl pH 7.5 and 150 mM NaCl] were recorded by exciting trans-resveratrol at 320 nm[23]. The solutions of resveratrol and γ-M were sequentially added to the protein solution in the same manner as for the intrinsic fluorescence assay.

The target of a further assay is T4, V30M (Homo sapiens, UniProt P02766, V50M).
T4 construct: made in house
Nature of the assay: Intrinsic fluorescence quenching titration. The format is binding. To be noted: 2 μM TTR, excitation 280 nm, 0–20 μM γ-M. The protocol: as §1, §2

For orientation: EC50 means the midpoint of the concentration-response curve. Low readings indicate higher potency in that assay, high ones lower potency in that assay. For `COc1c(O)cc2oc3cc(O)c(CC=C(C)C)c(O)c3c(=O)c2c1CC=C(C)C` [Compound 1, α-mangostin], on V30M mutated TTR, the EC50 was found to be 15 ± 0.75 µM, the “Inhibition ratio at 20 μM” value was determined as 61 ± 4.7% and the inhibition at 20 µM amounted to 61%. Further, on V30M tetramer, the tetramer fraction entry is “increased in a dose-dependent manner”.
Take `COc1c(O)cc2oc3cc4c(c(O)c3c(=O)c2c1CC=C(C)C)CCC(C)(C)O4` [Compound 2, 3-isomangostin]: at V30M mutated TTR, the EC50 is > 20 µM, the “Inhibition ratio at 20 μM” value is given as 32 ± 1.3% and the inhibition at 20 µM worked out at 32%.
For `COc1c(O)cc2oc3cc4c(c(O)c3c(=O)c2c1CC=C(C)C)C=CC(C)(C)O4` [Compound 3, 9-hydroxycalabaxanthone], in that order: > 20 µM, 29 ± 1.5% and 29%.
As for `CC(C)=CCc1c(O)cc2oc3cc(O)c(O)c(CC=C(C)C)c3c(=O)c2c1O` [Compound 4, γ-mangostin], on V30M mutated TTR, the midpoint of the response, the EC50, lay at 7 ± 0.6 µM and the inhibition at 20 µM turned out to be 97 ± 1.3%. For the same molecule, the “fluorescence intensity of resveratrol bound to V30M on addition of compound” value at T4-binding sites of V30M is listed as “significantly decreased”. Also, the tetramer fraction result on V30M tetramer is “increased in a dose-dependent manner”. Moreover, the “quenching of the intrinsic fluorescence emission from V30M” value at V30M is given as “induced similar quenching”.
In the case of `CC(C)=CCc1c(O)c(CC=C(C)C)c2oc3c(O)ccc(O)c3c(=O)c2c1O` [Compound 5, gartanin], at V30M mutated TTR, the EC50 was > 20 µM and the inhibition at 20 µM came to 30 ± 0.79%.
`CC(C)=CCc1c(O)c(CC=C(C)C)c2oc3c(O)cccc3c(=O)c2c1O` [Compound 6, 8-deoxygartanin]: at V30M mutated TTR (up to 20 μM compound), the “inhibitory ability against amyloid fibril formation” value is “did not exhibit the inhibitory ability”.
As to `CC(C)=CCc1c(O)cc2oc3cc(O)c(O)c(CCC(C)(C)O)c3c(=O)c2c1O` [Compound 7, garcinone C], on V30M mutated TTR, the EC50 was determined as 10 ± 0.3 µM and the inhibition at 20 µM stood at 83 ± 0.23%.
For `O=c1c2cc(O)c(O)cc2oc2cc(O)cc(O)c12` [Compound 8, norathyriol] the same measures were 9.7 ± 0.48 µM and 79 ± 0.49%.
For `CC(C)=CCc1c(O)cc2oc3ccc(O)cc3c(=O)c2c1O` [Compound 9, 1,3,7-trihydroxy-2-prenylxanthone] the same measures were 13 ± 1.1 µM and 67 ± 2.7%.
For `O=c1c2ccc(O)c(O)c2oc2c(O)c(O)ccc12` [Compound 10, 3,4,5,6-tetrahydroxyxanthone], in that order: > 20 µM and 25 ± 0.97%.
For the molecule `O=c1c2cc(O)c(O)cc2oc2cccc(O)c12` [Compound 11, 1,6,7-trihydroxyxanthone], on V30M mutated TTR, a half-maximal effect (EC50) was put at 14 ± 0.51 µM and the inhibition at 20 µM came out at 64 ± 1.2%.
For `O=c1c2cc(O)c(O)cc2oc2cc(O)c([C@@H]3O[C@H](CO)[C@@H](O)[C@H](O)[C@H]3O)c(O)c12` [Compound 12, mangiferin] the same measures were > 20 µM and 8.5 ± 2.1%.
As for `O=C(O)c1cc(-c2ccc(F)cc2F)ccc1O` [diflunisal, reference compound], the inhibition at 20 µM at V30M mutated TTR stood at 97 ± 1.7%.
